Structures can show the parent of a compound that is named as a salt. Where two headings read alike, the source gives them in different places. Some results are limits rather than exact numbers.

The text below walks through data of US20070078263A1, “BIARYL SUBSTITUTED HETEROCYCLE INHIBITORS OF LTA4H FOR TREATING INFLAMMATION” (deCODE Chemistry, Inc., priority 2005, published 2007).

One experiment deals with T1, human LTA4 hydrolase (Homo sapiens, UniProt P09960).
T1 construct: A human LTA4 hydrolase full-length cDNA clone (NM 000895) was purchased; His tag (6xHis of vector pDEST17); made in house; host or cells: Escherichia coli BL21-AI
T1 sequence (P09960 1-611): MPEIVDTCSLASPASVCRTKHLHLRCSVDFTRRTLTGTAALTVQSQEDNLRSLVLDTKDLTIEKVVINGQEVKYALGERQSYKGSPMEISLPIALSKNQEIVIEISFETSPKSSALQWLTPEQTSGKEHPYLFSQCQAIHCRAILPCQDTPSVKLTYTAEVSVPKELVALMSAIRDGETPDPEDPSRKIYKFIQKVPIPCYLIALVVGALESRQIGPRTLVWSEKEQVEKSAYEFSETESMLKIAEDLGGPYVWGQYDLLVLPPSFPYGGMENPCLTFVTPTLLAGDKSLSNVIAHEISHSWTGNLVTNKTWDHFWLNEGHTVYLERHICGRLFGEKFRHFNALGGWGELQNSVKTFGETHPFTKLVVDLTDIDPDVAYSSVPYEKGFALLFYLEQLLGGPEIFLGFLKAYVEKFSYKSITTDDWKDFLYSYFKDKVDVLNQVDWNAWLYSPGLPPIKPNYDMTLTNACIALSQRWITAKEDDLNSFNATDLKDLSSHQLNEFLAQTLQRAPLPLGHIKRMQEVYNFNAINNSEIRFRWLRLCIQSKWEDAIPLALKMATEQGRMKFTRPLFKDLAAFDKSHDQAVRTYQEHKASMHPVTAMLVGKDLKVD
As to the kind of experiment: In vitro assay testing inhibitory activity against purified recombinant human LTA4 hydrolase (LTB4 formed, LC-MS/MS).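 Also: 200 nM enzyme preincubated 10 min at room temperature with serial inhibitor dilutions in pH 8.0 Tris buffer with BSA and 10% DMSO, then 2 µM LTA4 added.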 Type of experiment: biochemical.

The test system of a further experiment is human whole blood. As to the kind of experiment: Ex vivo assay testing inhibitory activity in human whole blood after stimulation with calcium ionophore (LTB4 ELISA).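 Also: heparinized human blood preincubated 15 min at 37 °C with compound, then ionomycin-stimulated for 30 min, LTB4 in plasma supernatant quantified by ELISA.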 Type of experiment: cell-based. The conditions noted are these: Ionomycin 20 μM, read-out: hWBIC50. (In an ELISA, binding on a coated surface is turned into a signal by an enzyme label.)
Experiment [1] concerns ionophore-induced LTB4 production. The conditions noted are these: oral administration; cited from earlier work.
For experiment [2] the test system is unchanged. The conditions noted are these: oral administration; cited from earlier work. This is another data set of the same source.
Another experiment deals with primate model. The following applies: eight weeks of treatment; cited from earlier work.
Where [3] appears, read: recombinant human LTA4 hydrolase 200 nM, LTA4 2 μM, read-out: AvgIC50.

Method for human whole blood: (2) Ex vivo assay testing inhibitory activity in human whole blood after stimulation with calcium ionophor.
Human blood was collected in heparin-containing Vacutainer tubes. […] Then 4 μl of a series of compound dilutions (in DMSO) were added, followed by a 15 min incubation at 37° C. with gentle shaking. After that, blood samples were stimulated by adding Ionomycin (Calbiochem) to a final concentration of 20 μM. After another incubation at 37° C. for 30 min, samples were centrifuged for 5 min at 1800 g and 4° C. Supernatants were taken and LTB4 concentrations were determined using a commercially available enzyme-linked immunosobentassay (R&D Systems, Minneapolis, Minn.) according to the manufacturer's instructions.

Turning to `c1cncc(-c2ccc(Oc3ccc(OC[C@H]4CCCN4)cc3)cc2)c1` [Example 87, 3-{4-[4-((R)-1-Pyrrolidin-2-ylmethoxy)-phenoxy]-phenyl}-pyridine hydrochloride salt], the IC50 at human LTA4 hydrolase (setting [3]) and in the experiment with human whole blood was under 5 µM in each case.

As to `c1ccc(-c2ccc(Oc3ccc(OC[C@H]4CCCCN4)cc3)cc2)cc1` [Example 54, (R)-2-[4-(Biphenyl-4-yloxy)-phenoxymethyl]-piperidine hydrochloride], the IC50 on human LTA4 hydrolase and with human whole blood was under 5 µM throughout.

Consider `O=C(O)CCCN1CCC[C@@H]1COc1ccc(Oc2ccc(-n3cccn3)cc2)cc1` [Example 134, 4-{(R)-2-[4-(4-Pyrazol-1-yl-phenoxy)-phenoxymethyl]-pyrrolidin-1-yl}-butyric acid], for which the IC50 at human LTA4 hydrolase (setting [3]) was 5 to 20 µM; with human whole blood, under 5 µM.

Regarding `c1ccc(Cc2ccc(OC[C@H]3CCCCN3)cc2)cc1` [Example 51, (R)-2-(4-Benzyl-phenoxymethyl)-piperidine hydrochloride], the IC50 on human LTA4 hydrolase (setting [3]) and in the experiment on human whole blood was under 5 µM in each case.

Consider `CN(CCCOc1ccc(Cc2ccccc2)cc1)CCC(=O)O.Cl` [SC57461], for which the “inhibition of ionophore-induced LTB4 production in mouse blood ex vivo” value in experiment [1] is on record as “inhibition of ionophore-induced LTB4 production”. The “inhibition of ionophore-induced LTB4 production in rat peritoneum in vivo” value in experiment [2] is recorded as “inhibition of ionophore-induced LTB4 production”. Further, the “colitis symptoms in a primate model” value in the experiment with primate model was “significantly improved colitis symptoms”.

In the case of `c1ccc(Oc2ccc(NC[C@H]3CCCN3)cc2)cc1` [Example 42, (4-Phenoxy-phenyl)-(R)-1-pyrrolidin-2-ylmethyl-amine], the IC50 on human LTA4 hydrolase (setting [3]) and in the experiment on human whole blood was under 5 µM in each case.

`O=C(O)CCCN1CCC[C@H]1COc1ccc(Cc2ccccc2)cc1` [Example 3, 4-[(S)-2-(4-benzyl-phenoxymethyl)-pyrrolidin-1-yl]-butyric acid]: the IC50 on human LTA4 hydrolase (setting [3]) and with human whole blood was under 5 µM throughout.

In the case of `c1ccc(CCc2ccc(OC[C@H]3CCCN3)cc2)cc1` [Example 135, (R)-2-(4-Phenethyl-phenoxymethyl)-pyrrolidine], the IC50 at human LTA4 hydrolase (setting [3]) and with human whole blood was 5 to 20 µM each time.

As to `c1coc(-c2ccc(Cc3ccc(OC[C@H]4CCCN4)cc3)cc2)c1` [Example 109, (R)-2-[4-(2-Furan-benzyl)-phenoxymethyl]-pyrrolidine hydrogen chloride salt], the IC50 on human LTA4 hydrolase (setting [3]) and in the experiment with human whole blood was under 5 µM each time.

For the compound `c1csc(-c2ccc(Cc3ccc(OC[C@H]4CCCN4)cc3)cc2)c1` [Example 107, (R)-2-[4-(2-thiophen-benzyl)-phenoxymethyl]-pyrrolidine hydrogen chloride salt], the IC50 at human LTA4 hydrolase (setting [3]) and in the experiment on human whole blood was under 5 µM each time.

As to `c1cc(-c2ccc(Cc3ccc(OC[C@H]4CCCN4)cc3)cc2)co1` [Example 108, (R)-2-[4-(3-Furan-benzyl)-phenoxymethyl]-pyrrolidine hydrogen chloride salt], the IC50 on human LTA4 hydrolase (setting [3]) and with human whole blood was under 5 µM each time.

As for `c1ccc(Oc2ccc(OC[C@@H]3CCCCN3)cc2)cc1` [Example 52, (S)-2-(4-Phenoxy-phenoxymethyl)-piperidine hydrochloride], the IC50 at human LTA4 hydrolase (setting [3]) and with human whole blood was under 5 µM in each case.
